We go through five compounds from the CheMixHub viscosity set.

Several values for one entry are separate records, joined by “and”; a condition that tells them apart may be missing. Identical values can stand only once. ± gives the uncertainty stated by the source.

Usually viscosity stands for the internal friction of a fluid under shear. Where the note is “298.15 K, 101.3 kPa”, `CCCCCCC(=O)[O-].CC[NH+](C(C)C)C(C)C` showed a viscosity of 12.23 ± 0.76 mPa·s.
`COC=O`: the viscosity (298.15 K, 101.33 kPa) is 0.328 ± 0.003 mPa·s.
For the compound `Cc1ccc(N)cc1`, the viscosity is given as 2.08 ± 0.02 mPa·s (313.05 K, 101 kPa) and 1.8 ± 0.036 mPa·s (323.1 K, 101 kPa).
For `Cl[Si](Cl)(Cl)Cl`, the viscosity was 0.462 ± 0.019 mPa·s and 0.442 ± 0.018 mPa·s (303.1 K, 101 kPa); 0.402 ± 0.017 mPa·s (313.1 K, 101 kPa).
For the compound `c1ccc(Oc2ccccc2)cc1`, the viscosity was 3.3 ± 0.14 mPa·s and 3.051 ± 0.065 mPa·s (303.15 K, 101 kPa); 2.92 ± 0.12 mPa·s (308.15 K, 101 kPa); 2.61 ± 0.11 mPa·s (313.15 K, 101 kPa).
